Experimental data published in article PMC8224742, “Evaluation of 1β-Hydroxylation of Deoxycholic Acid as a Non-Invasive Urinary Biomarker of CYP3A Activity in the Assessment of Inhibition-Based Drug–Drug Interaction in Healthy Volunteers” (Journal of Personalized Medicine, 2021).
Entries after “also recorded” stand apart in the source; their conditions may differ. Like-named read-outs stand apart in the source and are kept apart here. Marks after values point to notes of the source that are not given here.

Key:
CYP3A [1] = assay: Oral MDZ (1.5 mg p.o.) plasma pharmacokinetics (MDZ and 1′-OH-MDZ) alone and after repeated inhibitor administration; settings: for 1’-OH-MDZ AUC0– (zero to infinity), MDZ alone / 1’-OH-MDZ AUClast, MDZ alone / 1’-OH-MDZ Cmax, MDZ alone / 1’-OH-MDZ T1/2, MDZ alone / 1’-OH-MDZ Tmax, MDZ alone / MDZ CL, MDZ alone: MDZ 1.5 mg p.o., geometric mean (90% CI)
Description: (§1) ITZ tablets (200 mg) were split equally in two, and 100 mg were given to subjects.
(§2) MDZ acted as a nested control in the evaluation of the endogenous urinary markers, and it was administered both orally (1.5 mg) and intravenously (i.v.; 1.0 mg). Participants were all treated the same way for the baseline and randomly split into 3 arms of 8–10 individuals each to evaluate the effect of the inhibitors. […] MDZ pharmacokinetic (PK) profiling and biomarker sampling was also conducted after the washout period and at the end of the study to determine whether enzyme activity returned to baseline levels. The subjects were their control. Treatment, washout and end of study values were compared with values at baseline.
(§3) Plasma concentrations of MDZ and its metabolite 1′-OH-MDZ were analysed using a validated LC-MS/MS method. Plasma samples were extracted using protein precipitation, where 300 µL of acetonitrile (ACN) containing 500 ng/mL diazepam as an internal standard (IS) was added to 100 µL of plasma. The mixture was then vortexed for 10 min, followed by centrifugation at 10,000× g for 5 min at a temperature of 4 °C. The supernatant was collected, and 5 µL were injected into the LC-MS/MS for analysis.
(§4) The mobile phase consisted of 10 mM ammonium formate in 5% methanol (MeOH) (A) and ACN (B). […] The column temperature was maintained at 40 °C. MDZ and 1′-OH-MDZ were detected on a Sciex 3200 mass spectrometer with a turbo ion spray interphase operated in positive ion mode at 5500 V, a temperature of 5000 °C; GS1 and GS2 at 50 and 60 psi, respectively; and a curtain gas flow of 25 psi. […] The quantification of the MDZ and 1′-OH-MDZ was performed using the Analyst software (version 1.2; Applied Biosystems).
(§5) Standard non-compartmental pharmacokinetic (PK) analysis was performed with the WinNolin program, version 4.1 (Pharsight Corp, Mountain View, CA, USA), using the linear up logarithmic down trapezoidal method. The plasma parameters that were assessed and used for the comparison with the urinary biomarker were MDZ clearance (MDZ CL) and the area under the plasma concentration-time curve (AUC) from zero to infinity (AUC0–inf) of MDZ. More PK parameters were evaluated for MDZ and 1′-OH-MDZ.
(§6) The difference between log-transformed treatment/baseline was calculated pairwise for each subject, as well as for their 90% confidence intervals (CIs). These differences and CIs were anti-log-transformed back for reporting purposes. The same analysis was performed for MDZ clearance and AUC0-inf before and after treatment for comparison.
(§7) The pharmacokinetic (PK) parameters of MDZ were performed by standard noncompartmental
(§8) methods using the WinNolin program, version 4.1 (Pharsight Corp, Mountain View, CA, USA).
(§9) were plotted as graphs of midazolam or 1-OH-midazolam concentration vs. time.

CYP3A [2] = assay: Intravenous MDZ (1.0 mg i.v.) plasma pharmacokinetics (MDZ and 1′-OH-MDZ) alone and after repeated inhibitor administration; settings: for 1’-OH-MDZ AUC0– (zero to infinity), MDZ alone / 1’-OH-MDZ AUClast, MDZ alone / 1’-OH-MDZ Cmax, MDZ alone / 1’-OH-MDZ T1/2, MDZ alone / 1’-OH-MDZ Tmax, MDZ alone: MDZ 1 mg i.v., geometric mean (90% CI)
Description: as §1, §2, §3, §4, §5, §6, §7, §8, §9

CYP3A [3] = tested on: CYP3A
Description: as §1, §2
Sample preparations for the analysis of 1β-OH-DCA and ToDCA in human urine were performed using a previously described method but without acid solvolysis [15, 20]. In brief, an aliquot of 50 µL of a 0.1 M Tris HCL buffer (pH 5) containing a mixture of hydrolysis enzymes (100 U/mL choloylglycine hydrolase, 200 µL/mL β-glucuronidase/arylsulfatase, and 100 U/mL sulfatase) was added to 50 µL of urine, followed by adding 50 µL of an aqueous solution containing 1 µM of (D4)-DCA and (D4)-1β-OH-DCA as IS. The mixture was incubated overnight at 37 °C at a shaking speed of 500 rpm for enzymatic hydrolysis of glucuronides, sulfates, and amino acid conjugates. The reaction mixture was then quenched with a 300 µL ACN-MeOH (1:1, v/v) solution followed by centrifugation at 4000× g, 4 °C for 20 min. The supernatant was separated and diluted with an equal volume of water for ultra-high-performance liquid chromatography-high resolution mass spectrometry (UPLC-HRMS) analysis. […]
References containing 10 µM G-DCA, T-DCA, G-1β-OH-DCA, T-1β-OH-DCA, CDCA-24-G, and DCA-3-S were also prepared in stripped urine and subjected to enzymatic hydrolysis to monitor the efficiency of enzymatic deconjugation. […] Therefore, the concentrations of DCA-3-S were also determined in urine and combined with free DCA to represent the total concentration of DCA, i.e., ToDCA. […]

CYP3A [4] = settings: human, in vivo
Description: as §1, §2, §3, §4, §5, §6, §7, §8, §9

CYP3A [5] = settings: human, in vivo, iv
Description: as §1, §2, §3, §4, §5, §6, §7, §8, §9

CYP3A [6] = settings: ITZ 200 mg od for 6 days; cited from earlier work
[7] = Oral MDZ (1.5 mg p.o.) plasma pharmacokinetics (MDZ and 1′-OH-MDZ) alone and after repeated inhibitor administration; settings: human, in vivo, po, 1.5 mg; for AUC: MDZ AUC0– (zero to infinity); for AUC / AUC(0-t) / Cmax / Tmax: MDZ alone; for AUC / AUC(0-t) / Cmax / half-life / Tmax: MDZ 1.5 mg p.o., geometric mean (90% CI); for AUC(0-t): MDZ AUClast; for Cmax: MDZ Cmax; for half-life: MDZ T1/2, MDZ alone; for Tmax: MDZ Tmax; for AUC(0-inf): Oral MDZ AUC0-inf, Baseline, MDZ 1.5 mg p.o. before inhibitor, geometric mean (range)
Description: as §1, §2, §3, §4, §5, §6, §7, §8, §9

[8] = Intravenous MDZ (1.0 mg i.v.) plasma pharmacokinetics (MDZ and 1′-OH-MDZ) alone and after repeated inhibitor administration; settings: human, in vivo, iv, 1 mg; for AUC: MDZ AUC0– (zero to infinity); for AUC(0-t): MDZ AUClast; for Cmax: MDZ Cmax; for half-life: MDZ T1/2, MDZ alone; for Tmax: MDZ Tmax; for AUC(0-inf): i.v. MDZ AUC0-inf
Description: as §1, §2, §3, §4, §5, §6, §7, §8, §9

[9] = repeated administration (APZ 1 mg od)
[10] = MDZ alone, MDZ 1 mg i.v., APZ arm (Table S1), geometric mean (90% CI)
[11] = MDZ alone, MDZ 1 mg i.v., FKZ arm (Table S2), geometric mean (90% CI)
[12] = MDZ alone, MDZ 1 mg i.v., ITZ arm (Table S3), geometric mean (90% CI)

Compound: OCc1ncc2n1-c1ccc(Cl)cc1C(c1ccccc1F)=NC2 [1’-OH-MDZ, 1′-hydroxymidazolam]
- 1’-OH-MDZ AUC0– (zero to infinity), MDZ alone (CYP3A [1]; APZ arm (Table S1)): 10.56 (6.77–16.48) ng·h/mL
- 1’-OH-MDZ AUClast, MDZ alone (CYP3A [1]; APZ arm (Table S1)): 8.23 (6.15–11.02) ng·h/mL
- 1’-OH-MDZ Cmax, MDZ alone (CYP3A [1]; APZ arm (Table S1)): 2.60 (2.13–3.18) ng/mL
- 1’-OH-MDZ T1/2, MDZ alone (CYP3A [1]; APZ arm (Table S1)): 2.54 (1.26–5.09) h
- 1’-OH-MDZ Tmax, MDZ alone (CYP3A [1]; APZ arm (Table S1)): 0.77 (0.65–0.91) h
- 1’-OH-MDZ AUC0– (zero to infinity), MDZ alone (CYP3A [1]; FKZ arm (Table S2)): 6.73 (3.77 – 12.01) ng·h/ml
- 1’-OH-MDZ AUClast, MDZ alone (CYP3A [1]; FKZ arm (Table S2)): 6.56 (3.6 – 11.94) ng·h/ml
- 1’-OH-MDZ Cmax, MDZ alone (CYP3A [1]; FKZ arm (Table S2)): 2.81 (1.61 – 4.92) ng/ml
- 1’-OH-MDZ T1/2, MDZ alone (CYP3A [1]; FKZ arm (Table S2)): 1.99 (1.32 – 3.0) h
- 1’-OH-MDZ Tmax, MDZ alone (CYP3A [1]; FKZ arm (Table S2)): 0.83 (0.56 – 1.21) h
- 1’-OH-MDZ AUC0– (zero to infinity), MDZ alone (CYP3A [1]; ITZ arm (Table S3)): 4.57 (3.04 – 6.88) ng·h/ml
- 1’-OH-MDZ AUClast, MDZ alone (CYP3A [1]; ITZ arm (Table S3)): 4.22 (2.8 -6.36) ng·h/ml
- 1’-OH-MDZ Cmax, MDZ alone (CYP3A [1]; ITZ arm (Table S3)): 2.29 (1.64 – 3.19) ng/ml
- 1’-OH-MDZ T1/2, MDZ alone (CYP3A [1]; ITZ arm (Table S3)): 1.34 (1.05 -1.7) h
- 1’-OH-MDZ Tmax, MDZ alone (CYP3A [1]; ITZ arm (Table S3)): 0.71 (0.63 – 0.80) h
- 1’-OH-MDZ AUC0– (zero to infinity), MDZ alone (CYP3A [2]; APZ arm (Table S1)): 4.49 (2.12–9.50) ng·h/mL
- 1’-OH-MDZ AUClast, MDZ alone (CYP3A [2]; APZ arm (Table S1)): 2.54 (1.49–4.35) ng·h/ml
- 1’-OH-MDZ Cmax, MDZ alone (CYP3A [2]; APZ arm (Table S1)): 1.24 (1.02–1.50) ng/mL
- 1’-OH-MDZ AUC0– (zero to infinity), MDZ alone (CYP3A [2]; FKZ arm (Table S2)): 3.31 (1.92 – 5.72) ng·h/ml
- 1’-OH-MDZ AUClast, MDZ alone (CYP3A [2]; FKZ arm (Table S2)): 2.56 (1.65 - 3.96) ng·h/ml
- 1’-OH-MDZ Cmax, MDZ alone (CYP3A [2]; FKZ arm (Table S2)): 1.09 (0.76 – 1.56) ng/ml
- 1’-OH-MDZ T1/2, MDZ alone (CYP3A [2]; FKZ arm (Table S2)): 2.30 (1.44 -3.65) h
- 1’-OH-MDZ Tmax, MDZ alone (CYP3A [2]; FKZ arm (Table S2)): 0.79 (0.69 – 0.90) h
- 1’-OH-MDZ AUC0– (zero to infinity), MDZ alone (CYP3A [2]; ITZ arm (Table S3)): 2.26 (1.5 – 3.41) ng·h/ml
- 1’-OH-MDZ AUClast, MDZ alone (CYP3A [2]; ITZ arm (Table S3)): 2.00 (1.41 – 3.01) ng·h/ml
- 1’-OH-MDZ Cmax, MDZ alone (CYP3A [2]; ITZ arm (Table S3)): 1.09 (0.87 – 1.35) ng/ml
- 1’-OH-MDZ T1/2, MDZ alone (CYP3A [2]; ITZ arm (Table S3)): 1.25 (0.8 – 1.95) h
- 1’-OH-MDZ Tmax, MDZ alone (CYP3A [2]; ITZ arm (Table S3)): 0.79 (0.69 -0.90) h

Compound: Cc1nnc2n1-c1ccc(Cl)cc1C(c1ccccc1)=NC2 [APZ, alprazolam]
- effect on 1β-OH-DCA/ToDCA UMR (in words) (CYP3A [3]; [9]): No inhibition; also recorded: no significant effect
- effect on MDZ PK parameters (in words) (CYP3A [1]; [9]): no significant effect

Compound: OC(Cn1cncn1)(Cn1cncn1)c1ccc(F)cc1F [FKZ, fluconazole]
- 1’-OH-MDZ T1/2, MDZ + inhibitor (CYP3A [4]; po): 1.71 (1 – 2.89) h
- 1’-OH-MDZ Tmax, MDZ + inhibitor (CYP3A [4]; po): 0.83 (0.68 – 1) h
- 1’-OH-MDZ T1/2, MDZ + inhibitor (CYP3A [5]): 2.25 (1.56 – 3.23) h
- 1’-OH-MDZ Tmax, MDZ + inhibitor (CYP3A [5]): 0.70 (0.59 – 0.83) h

Compound: CCC(C)n1ncn(-c2ccc(N3CCN(c4ccc(OCC5COC(Cn6cncn6)(c6ccc(Cl)cc6Cl)O5)cc4)CC3)cc2)c1=O (stereo not drawn) [ITZ, itraconazole]
- time after completion of treatment at which 1β-OH-DCA/ToDCA ratio was fully restored to baseline (CYP3A [3]; after ITZ 100 mg od for 6 days): nine
- Oral MDZ CL, Treatment/Baseline (90%CI) (CYP3A [4]): 0.30 ** (0.18–0.47)
- decrease of oral MDZ CL from baseline (CYP3A [4]): 70%
- i.v. MDZ CL, Treatment/Baseline (90%CI) (CYP3A [5]): 0.44 * (0.26–0.73)
- fold increase in oral MDZ AUC (CYP3A [6]): 6.6 fold
- reduced oral MDZ clearance (CYP3A [6]): 85%

Compound: Cc1ncc2n1-c1ccc(Cl)cc1C(c1ccccc1F)=NC2 [MDZ, midazolam]
- AUC ([7]; APZ arm (Table S1)): 10.6 ng·h/mL
- AUC ([7]; FKZ arm (Table S2)): 19.4 ng·h/mL
- AUC ([7]; ITZ arm (Table S3)): 9.64 ng·h/mL
- AUC(0-t) ([7]; APZ arm (Table S1)): 10.4 ng·h/mL
- AUC(0-t) ([7]; FKZ arm (Table S2)): 18.5 ng·h/mL
- AUC(0-t) ([7]; ITZ arm (Table S3)): 8.61 ng·h/mL
- Cmax ([7]; APZ arm (Table S1)): 4.13 ng/mL
- Cmax ([7]; FKZ arm (Table S2)): 6.18 ng/mL
- Cmax ([7]; ITZ arm (Table S3)): 4.86 ng/mL
- half-life ([7]; APZ arm (Table S1)): 1.63 h
- half-life ([7]; FKZ arm (Table S2)): 2.26 h
- half-life ([7]; ITZ arm (Table S3)): 1.43 h
- Tmax ([7]; APZ arm (Table S1)): 0.76 h
- Tmax ([7]; FKZ arm (Table S2)): 0.79 h
- Tmax ([7]; ITZ arm (Table S3)): 0.63 h
- AUC(0-inf) ([7]; APZ arm): 10.6 ng·h/mL
- AUC(0-inf) ([7]; FKZ arm): 22.7 ng·h/mL
- Oral MDZ CL, Baseline (CYP3A [1]; APZ arm, MDZ 1.5 mg p.o. before inhibitor, geometric mean (range)): 59.1 (28.0–220.5) L/h
- Oral MDZ CL, Baseline (CYP3A [1]; FKZ arm, MDZ 1.5 mg p.o. before inhibitor, geometric mean (range)): 59.8 (17.0–135.9) L/h
- Oral MDZ CL, Baseline (CYP3A [1]; ITZ arm, MDZ 1.5 mg p.o. before inhibitor, geometric mean (range)): 126 (46.7–648.8) L/h
- MDZ CL, MDZ alone (CYP3A [1]; APZ arm (Table S1)): 137.34 (101–186) L/h
- MDZ CL, MDZ alone (CYP3A [1]; FKZ arm (Table S2)): 77.41 (56.44 – 106.19) L/h
- MDZ CL, MDZ alone (CYP3A [1]; ITZ arm (Table S3)): 155.58 L/h
- AUC(0-inf) (CYP3A [1]; human, in vivo, po, 1.5 mg, Oral MDZ AUC0-inf, Baseline, ITZ arm, MDZ 1.5 mg p.o. before inhibitor, geometric mean (range)): 10.8 ng·h/mL
- AUC [8, 10]: 16.8 ng·h/mL
- AUC [8, 11]: 12.4 ng·h/mL
- AUC [8, 12]: 13.5 ng·h/mL
- AUC(0-t) [8, 10]: 16.6 ng·h/mL
- AUC(0-t) [8, 11]: 12 ng·h/mL
- AUC(0-t) [8, 12]: 12.9 ng·h/mL
- clearance ([8]; MDZ CL, MDZ alone, MDZ 1 mg i.v., APZ arm (Table S1), geometric mean (90% CI)): 998 mL/min
- clearance ([8]; MDZ CL, MDZ alone, MDZ 1 mg i.v., FKZ arm (Table S2), geometric mean (90% CI)): 1350 mL/min
- clearance ([8]; MDZ CL, MDZ alone, MDZ 1 mg i.v., ITZ arm (Table S3), geometric mean (90% CI)): 1230 mL/min
- Cmax [8, 10]: 26 ng/mL
- Cmax [8, 11]: 22.6 ng/mL
- Cmax [8, 12]: 25 ng/mL
- half-life ([8]; MDZ 1 mg i.v., APZ arm (Table S1), geometric mean (90% CI)): 2.06 h
- half-life ([8]; MDZ 1 mg i.v., FKZ arm (Table S2), geometric mean (90% CI)): 1.55 h
- half-life ([8]; MDZ 1 mg i.v., ITZ arm (Table S3), geometric mean (90% CI)): 2.32 h
- Tmax [8, 10]: 0.29 h
- Tmax [8, 12]: 0.28 h
- AUC(0-inf) ([8]; Baseline, APZ arm, MDZ 1.0 mg i.v. before inhibitor, geometric mean (range)): 16.8 ng·h/mL
- AUC(0-inf) ([8]; Baseline, FKZ arm, MDZ 1.0 mg i.v. before inhibitor, geometric mean (range)): 12.4 ng·h/mL
- clearance ([8]; i.v. MDZ CL, Baseline, APZ arm, MDZ 1.0 mg i.v. before inhibitor, geometric mean (range)): 993 mL/min
- clearance ([8]; i.v. MDZ CL, Baseline, FKZ arm, MDZ 1.0 mg i.v. before inhibitor, geometric mean (range)): 1350 mL/min
- AUC(0-inf) (CYP3A [2]; human, in vivo, iv, 1 mg, i.v. MDZ AUC0-inf, Baseline, ITZ arm, MDZ 1.0 mg i.v. before inhibitor, geometric mean (range)): 12.1 ng·h/mL
- clearance (CYP3A [2]; human, in vivo, iv, 1 mg, i.v. MDZ CL, Baseline, ITZ arm, MDZ 1.0 mg i.v. before inhibitor, geometric mean (range)): 1380 mL/min
